Results published in ChEMBL document CHEMBL5030558, “Optimization and Evaluation of Novel Antifungal Agents for the Treatment of Fungal Infection” (J Med Chem, 2021).
Activity calls are given as the source filed them. No cut-off for these calls is given here.

Legend:
Candida albicans [1] = assay: Synergistic antifungal activity against Candida albicans ATCC SC5314 assessed as FICI in presence of ICZ after 48 hrs by checker board assay; type: functional, organism-based
Cryptococcus neoformans [2] = assay: Antifungal activity against Cryptococcus neoformans H99 assessed as reduction in fungal growth incubated for 72 hrs by CLSI based broth microdilution method; type: functional
Candida albicans [3] = assay: In vivo antifungal activity against Candida albicans 90028 infected in BALB/c mouse assessed as reduction in size of inflammation measured upto 48 hrs post infection; type: functional, organism-based; conditions: time hrs <=48
Trichophyton rubrum [4] = assay: Fungicidal activity against Trichophyton rubrum KCCM60450 at 4 times after 2 hrs by time-kill kinetics assay; type: functional, organism-based
Nakaseomyces glabratus [5] = assay: Antifungal activity against Candida glabrata BG2 assessed as reduction in fungal growth incubated for 48 hrs by CLSI based broth microdilution method; type: functional
Candida albicans [6] = assay: In vivo antifungal activity against Candida albicans 90028 infected in BALB/c mouse assessed as appearance of soft epidermal stratum corneum measured upto 48 hrs post infection by histopathological analysis; type: functional, organism-based; conditions: time hrs <=48
Trichophyton rubrum [7] = assay: Ex vivo antifungal activity against Trichophyton rubrum KCCM60450 infected in human nail assessed as reduction in ATP level at 0.5 % w/w after 24 hrs; type: functional; set-up: scale not given: the % may be the effect or the level left
[8] = Cmax in cynomolgus monkey at 10 mg/kg, iv; type: ADME, organism-based, Macaca fascicularis; set-up: route intravenous, dose 10 mg/kg; conditions: in vivo
Cytochrome P450 2C9 = Cytochrome P450 2C9 (Homo sapiens, UniProt P11712); assay: Inhibition of CYP2C9 (unknown origin) relative to control; type: ADME
Cytochrome P450 2C9, sequence (P11712 whole entry): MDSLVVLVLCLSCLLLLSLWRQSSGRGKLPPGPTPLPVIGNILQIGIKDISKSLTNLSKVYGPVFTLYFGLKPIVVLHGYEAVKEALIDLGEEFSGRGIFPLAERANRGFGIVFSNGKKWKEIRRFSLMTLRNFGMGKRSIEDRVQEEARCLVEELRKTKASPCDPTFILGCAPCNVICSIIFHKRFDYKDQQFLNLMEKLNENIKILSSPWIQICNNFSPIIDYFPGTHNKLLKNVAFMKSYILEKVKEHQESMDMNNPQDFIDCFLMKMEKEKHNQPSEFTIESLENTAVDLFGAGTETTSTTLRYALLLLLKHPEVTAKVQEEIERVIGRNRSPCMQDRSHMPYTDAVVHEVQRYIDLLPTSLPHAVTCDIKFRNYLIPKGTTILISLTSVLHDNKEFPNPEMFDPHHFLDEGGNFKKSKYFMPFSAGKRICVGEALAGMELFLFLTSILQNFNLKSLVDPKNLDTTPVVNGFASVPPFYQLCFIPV

Cytochrome P450 2C19 = Cytochrome P450 2C19 (Homo sapiens, UniProt P33261); assay: Inhibition of CYP2C19 (unknown origin) relative to control; type: ADME
Cytochrome P450 2C19, sequence (P33261 whole entry): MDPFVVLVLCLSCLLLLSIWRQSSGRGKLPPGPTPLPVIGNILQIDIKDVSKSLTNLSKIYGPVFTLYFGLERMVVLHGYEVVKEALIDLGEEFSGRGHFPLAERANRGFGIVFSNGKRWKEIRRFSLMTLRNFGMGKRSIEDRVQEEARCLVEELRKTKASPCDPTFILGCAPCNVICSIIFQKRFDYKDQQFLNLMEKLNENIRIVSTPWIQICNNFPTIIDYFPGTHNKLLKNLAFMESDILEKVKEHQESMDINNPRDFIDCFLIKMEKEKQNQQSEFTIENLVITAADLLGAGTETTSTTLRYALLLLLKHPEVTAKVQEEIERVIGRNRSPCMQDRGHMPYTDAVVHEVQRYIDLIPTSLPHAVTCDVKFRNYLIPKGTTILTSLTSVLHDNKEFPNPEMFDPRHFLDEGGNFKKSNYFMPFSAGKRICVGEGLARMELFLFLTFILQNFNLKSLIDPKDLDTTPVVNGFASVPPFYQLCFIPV

[9] = Effect on cell wall integrity in Cryptococcus neoformans H99 assessed as activation of Mpk1 by measuring increase in Mpk1 phosphorylation ratio at 8 ug/ml after 90 mins by immunoblot analysis (reference value: 1); type: functional; conditions: dose 8 µg/ml, 1.5 h
Nakaseomyces glabratus [10] = assay: Induction of drug resistant in Candida glabrata BG2 assessed as increase in compound IC50 at 8 to 12 times MIC; type: functional, organism-based
Cryptococcus neoformans [11] = assay: Induction of morphological changes in Cryptococcus neoformans H99 assessed as reduction in cell wall thickness at 4 to 8 ug/ml incubated for 24 hrs by TEM analysis; type: functional, organism-based; conditions: dose 4-8 µg/ml
[12] = Effect on cell wall integrity in Cryptococcus neoformans H99 assessed as activation of Mpk1 by measuring increase in Mpk1 phosphorylation ratio at 8 ug/ml after 60 mins by immunoblot analysis (reference value: 1); type: functional; conditions: dose 8 µg/ml, 1 h
[13] = Cmax in Sprague-Dawley rat at 2 mg/kg, iv; type: ADME, organism-based; set-up: route intravenous, dose 2 mg/kg; conditions: in vivo
[Candida] auris [14] = Synergistic antifungal activity against Candida auris B8841 assessed as FICI in presence of ICZ after 48 hrs by checker board assay; type: functional, organism-based; conditions: Candidozyma auris
Cryptococcus neoformans [15] = assay: Induction of morphological changes in Cryptococcus neoformans H99 assessed as reduction in capsule thickness at 4 ug/ml incubated for 24 hrs by TEM analysis; type: functional, organism-based; conditions: dose 4.0 µg/ml
Candida albicans [16] = assay: Induction of morphological changes in Candida albicans ATCC SC5314 assessed as reduction in cell wall thickness at 32 ug/ml incubated for 24 hrs by TEM analysis; type: functional, organism-based; conditions: dose 32.0 µg/ml
[Candida] auris [17] = Additive antifungal activity against Candida auris B8841 assessed as assessed as FICI in presence of CSP after 48 hrs by checker board assay; type: functional, organism-based; conditions: Candidozyma auris
[18] = Stability in mouse liver microsomes assessed as parent compound remaining after 30 mins; type: ADME, Microsome; conditions: liver microsomes, read-out: Stability
[19] = Stability in rat hepatocytes assessed as parent compound remaining incubated for 60 mins; type: ADME, cell-based, Hepatocyte; conditions: read-out: Stability
[20] = Stability in dog hepatocytes assessed as parent compound remaining incubated for 60 mins; type: ADME, cell-based, Canis lupus familiaris, Hepatocyte; conditions: read-out: Stability
CYP1A2 = molecular target: T1, CYP1A2 (Homo sapiens, UniProt P05177); assay: Inhibition of CYP1A2 (unknown origin) relative to control; type: ADME
T1 sequence (P05177 whole entry): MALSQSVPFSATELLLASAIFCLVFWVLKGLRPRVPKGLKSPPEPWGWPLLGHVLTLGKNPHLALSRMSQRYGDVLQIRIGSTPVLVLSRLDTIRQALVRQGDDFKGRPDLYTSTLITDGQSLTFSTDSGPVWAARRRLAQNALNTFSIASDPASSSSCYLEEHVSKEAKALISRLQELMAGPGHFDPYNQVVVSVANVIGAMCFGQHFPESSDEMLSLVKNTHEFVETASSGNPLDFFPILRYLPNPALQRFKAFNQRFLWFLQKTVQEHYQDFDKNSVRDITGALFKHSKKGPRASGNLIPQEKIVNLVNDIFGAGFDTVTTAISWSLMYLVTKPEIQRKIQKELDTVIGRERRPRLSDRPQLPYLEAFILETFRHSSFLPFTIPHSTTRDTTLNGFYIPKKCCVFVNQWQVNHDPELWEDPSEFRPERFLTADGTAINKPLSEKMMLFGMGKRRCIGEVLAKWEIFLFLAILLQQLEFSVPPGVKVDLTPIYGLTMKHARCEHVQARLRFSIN

Cryptococcus neoformans [21] = assay: Fungicidal activity against Cryptococcus neoformans H99 at 8 times of MIC after 2 hrs by time-kill kinetics assay; type: functional, organism-based
[22] = Effect on cell wall integrity in Cryptococcus neoformans H99 assessed as increase in HXL1 activation ratio at 8 ug/ml after 2 hrs by immunoblot analysis (reference value: 1); type: functional; conditions: dose 8 µg/ml
[23] = AUC(0 to t) in dog at 1 mg/kg, iv; type: ADME, organism-based, Canis lupus familiaris; set-up: dose 1 mg/kg; conditions: in vivo
Candida albicans [24] = assay: Antifungal activity against Candida albicans ATCC SC5314 assessed as reduction in fungal growth incubated for 48 hrs by CLSI based broth microdilution method; type: functional
Trichophyton rubrum [25] = assay: Fungicidal activity against Trichophyton rubrum KCCM60450 at 2 times MIC after 8 hrs by time-kill kinetics assay; type: functional, organism-based
Cryptococcus neoformans [26] = assay: Induction of morphological changes in Cryptococcus neoformans H99 assessed as cell wall damage at 4 to 8 ug/ml incubated for 24 hrs by TEM analysis; type: functional, organism-based; conditions: dose 4-8 µg/ml
[27] = Toxicity in po dosed Sprague-Dawley rat assessed as lethal dose measured after 14 days; type: organism-based; conditions: in vivo, 336 h, time 14 day
[28] = Stability in human hepatocytes assessed as parent compound remaining incubated for 60 mins; type: ADME, cell-based, Hepatocyte; conditions: read-out: Stability
[29] = Stability in rat liver microsomes assessed as parent compound remaining after 30 mins; type: ADME, Microsome; conditions: liver microsomes, read-out: Stability
[30] = Stability in rabbit hepatocytes assessed as parent compound remaining incubated for 60 mins; type: ADME, cell-based, Oryctolagus cuniculus, Hepatocyte; conditions: read-out: Stability
[31] = Effective permeability by PAMPA method; type: ADME; conditions: read-out: Peff
Cryptococcus neoformans [32] = assay: Additive antifungal activity against Cryptococcus neoformans H99 assessed as FICI in presence of 5-FC after 48 hrs by checker board assay; type: functional, organism-based
Trichophyton rubrum [33] = assay: Ex vivo antifungal activity against Trichophyton rubrum KCCM60450 infected in human nail assessed as reduction in ATP level at 0.1 % w/w after 24 hrs; type: functional; set-up: scale not given: the % may be the effect or the level left
[34] = Oral bioavailability in Sprague-Dawley rat at 10 mg/kg; type: ADME, organism-based; conditions: in vivo
Cryptococcus neoformans [35] = assay: Synergistic antifungal activity against Cryptococcus neoformans XW252 in presence of FK506 by checkboard assay; type: functional, organism-based
[Candida] auris [36] = Synergistic antifungal activity against Candida auris B8841 assessed as FICI in presence of AmB after 48 hrs by checker board assay; type: functional, organism-based; conditions: Candidozyma auris

## CCCC(N)C(=O)NCCc1ccc(-c2ccc(Cl)c(Cl)c2)cc1.Cl (racemic)
Candida albicans [1]
  Activity: inactive
Cryptococcus neoformans [2]
  MIC: 1 µg/mL
Candida albicans [3]
  Activity: Active
Trichophyton rubrum [4]
  Activity: Active
Nakaseomyces glabratus [5]
  MIC: 4 µg/mL
Candida albicans [6]
  Activity: Active
Trichophyton rubrum [7]
  Activity: 32.72%
[8]
  Cmax: 1080 ng/mL
Cytochrome P450 2C9
  inhibition (INH): 77.3%
Cytochrome P450 2C19
  inhibition (INH): 86%
[9]
  Ratio: 3.32
Nakaseomyces glabratus [10]
  Activity: inactive
Cryptococcus neoformans [11]
  Activity: Active
[12]
  Ratio: 3.62
[13]
  Cmax: 190 ng/mL
[Candida] auris [14]
  Activity: inactive
Cryptococcus neoformans [15]
  Activity: Active
Candida albicans [16]
  Activity: Active
[Candida] auris [17]
  Activity: Active
[18]
  remaining at 0.5 h: 78.2%
[19]
  remaining at 1 h: 36.2%
[20]
  remaining at 1 h: 61.1%
CYP1A2
  inhibition at 10 µM: 81.1%
Cryptococcus neoformans [21]
  Activity: Active
[22]
  Ratio: 1.57
[23]
  AUC(0-t): 2680 ng·h/mL
Candida albicans [24]
  MIC: 2 µg/mL
Trichophyton rubrum [25]
  Activity: Active
Cryptococcus neoformans [26]
  Activity: Active
[27]
  Activity: 2000 mg/kg
[28]
  remaining at 1 h: 79.1%
[29]
  remaining at 0.5 h: 72.3%
[30]
  remaining at 1 h: 64.6%
[31]
  Papp: 58.9 ×10⁻⁶ cm/s
Cryptococcus neoformans [32]
  Activity: Active
Trichophyton rubrum [33]
  Activity: 73.02%
[34]
  bioavailability: 39.8%
Cryptococcus neoformans [35]
  Activity: Active
[Candida] auris [36]
  Activity: Active
